Measurements published in article PMC6100724, “Proteome‐wide analysis of phospho‐regulated PDZ domain interactions” (Molecular Systems Biology, 2018).

Tests used:
[1] = tested on: DLG1 PDZ3; assay: Phosphomimetic ProP-PD selection with NGS; type: binding, human; details: mean of selections 1-3; bait DLG1 PDZ3
Method in brief: (§1)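 Phage display of a phosphomimetic C-terminal peptide library, four rounds against immobilised GST-tagged PDZ domains with GST pre-selection, binding 2 h at 8 °C. Phospho-library selections were run in HBS, pH 7.4. Round-three pools were analysed by NGS (Phred ≥30, ≤2 mismatches); binding was scored as the fraction of reads, not the absolute count.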

[2] = tested on: DLG1 PDZ1; assay: Phosphomimetic ProP-PD selection with NGS; type: binding, human; details: mean of selections 1-3, bait DLG1 PDZ1; for Mean fraction #NGS counts mimetic peptide / total count selection: phosphomimetic peptide; for Mean fraction #NGS counts wt peptide / total counts selection: wild type peptide
Method in brief: as §1

[3] = tested on: Scribble PDZ3; assay: Phosphomimetic ProP-PD selection with NGS; type: binding, human; details: mean over selections 1-3; bait Scribble PDZ3
Method in brief: as §1

[4] = tested on: Scribble PDZ2; assay: Phosphomimetic ProP-PD selection with NGS; type: binding, human; details: bait Scribble PDZ2
Method in brief: as §1

[5] = biological target: T1, DLG1 PDZ2 (Homo sapiens, UniProt Q12959); assay: Phosphomimetic ProP-PD selection with NGS; type: binding; details: mean of selections 1-3, bait DLG1 PDZ2
T1 construct: human DLG1 PDZ2 aa 311–407 in a modified pRSET vector 40; made in house; host or cells: E. coli BL21 Gold (DE3)
Method in brief: as §1

[6] = biological target: T2, Scribble PDZ1 (Homo sapiens, UniProt Q14160); assay: Phosphomimetic ProP-PD selection with NGS; type: binding; details: bait Scribble PDZ1; mean of selections 1-3
T2 construct: human Scribble PDZ1 aa 719–829 in; made in house; host or cells: E. coli BL21 Gold (DE3)
Method in brief: as §1

[7] = biological target: T2, Scribble PDZ1; assay: Pre-phosphorylation ProP-PD: wild-type library treated with RPS6KA1 or not, selection with NGS; type: binding; details: mean of the two selections, bait Scribble PDZ1; for Phosphorylated selection Mean fraction: Pre-phosphorylation with RPS6KA1; for Unphosphorylated selection Mean fraction: Without Kinase
Experimental: For pre‐phosphorylation of the wild‐type ProP‐PD library, we obtained activated RPS6KA1 (Thermo Fisher). The time and amount of kinase required to phosphorylate the ProP‐PD library were tested in a phosphorylation assay.
Phage selections were carried out for four rounds following a protocol by Huang and Sidhu (Huang & Sidhu, 2011) with minor modifications. Non‐specific binding phage was removed by pre‐selections against immobilized GST throughout the selection. The selections against the (pre‐)phosphorylated wild‐type library were performed in 50 mM HEPES (pH 7.4) and 150 mM NaCl (HBS) following the same procedure after pre‐phosphorylation of the library.
• Immobilize proteins (15 μg in 100 μl PBS) in a 96‐well MaxiSorp microtiter plate (NUNC) overnight at 4°C. • Start a 2YT culture of E. coli Omnimax supplemented with 100 μg/ml tetracycline to retain the F pilus epitope. • Block the wells with 200 μl 0.5% BSA in PBS for 2 h at 4°C. • Precipitate naïve phage library (10^11 cfu per selection) or amplified phage pool from the previous round of selection by adding one‐fifth the volume of PEG/NaCl. • Incubate on ice for 10 min, and pellet precipitated phage by centrifugation at 5,300 g for 15 min. Resuspend the phage pellet in 100 μl PBS per selection. • Add 100 μl of phage solution to the GST‐coated pre‐selection wells and incubate for 1 h. • Transfer the phage solution to the immobilized target proteins and allow it to bind for 2 h at 8°C. • Wash the plate four times with 200 μl cold wash buffer (PBS, 0.05% Tween‐20). • Elute bound phage by incubation with 100 μl log phase (0.6–0.8 OD600) E. coli Omnimax for 30 min at 37°C with shaking (200 RPM). • Add 10^12 cfu/ml M13K07 helper phage for hyperinfection of the bacteria and incubate as above for 45 min. • Transfer the bacterial culture to 10 ml 2YT supplemented with 50 μg/ml carbenicillin, 25 μg/ml kanamycin, and 300 μM IPTG and incubate overnight at 37°C while shaking. • Perform phage pool ELISA to monitor the progress of the selection as described previously (Huang & Sidhu, 2011).
• Precipitate the naive wild‐type phage library (as described above, 1.8 × 10^10 cfu phage per selection). • Resuspend the precipitated phage pellets in 100 μl Kinase buffer per selection and add ATP (100 μM final concentration) and RPS6KA1 (500 ng/ml) to the phage solution. In parallel, prepare a negative control where only ATP is added to the phage pool. • Incubate the phosphorylation reaction for 2 h at room temperature. Stop the reaction through PEG/NaCl precipitation (as described above). • Resuspend the phage pool in 100 μl HBS.
During the 4 days of pre‐phosphorylation ProP‐PD selections, the input phage library of each day of selection was subjected to phosphorylation prior to phage selection.
The naïve library and the enriched phage pools of the third day of selection were amplified and barcoded by PCR and analyzed by NGS as described elsewhere (McLaughlin & Sidhu, 2013; Ivarsson et al, 2014). The reads were demultiplexed using the barcode sequences and filtered by discarding sequences with a Phred quality score under 30. Sequences were mapped to the original library using Bowtie (Langmead et al, 2009) with two mismatches between reads and library sequence. Nucleotide mutations leading to amino acid substitutions were subsequently removed. Cutoff values of NGS counts were assigned for each pool. PWMs were generated based on the remaining peptides (aligned on the C‐termini) using WebLogo (Crooks et al, 2004).

[8] = mean of selections 1 and 2 (selection 3 empty)

T2 sequence (Q14160 719-829): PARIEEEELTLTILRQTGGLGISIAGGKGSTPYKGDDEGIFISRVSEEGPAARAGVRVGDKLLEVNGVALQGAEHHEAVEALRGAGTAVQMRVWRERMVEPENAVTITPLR
T1 sequence (Q12959 311-407): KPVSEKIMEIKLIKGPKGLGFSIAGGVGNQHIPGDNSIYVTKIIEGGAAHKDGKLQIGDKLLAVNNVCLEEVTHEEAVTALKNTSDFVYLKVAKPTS

## YEPSMEMSV
[1]
  Mean fraction #NGS counts mimetic peptide / total count selection: 0.001067

## TNSSSYSHI
[1]
  Mean fraction #NGS counts wt peptide / total counts selection: 0.001855

## KREFIESNV
[2]
  Mean fraction #NGS counts mimetic peptide / total count selection: 2.37e-6
[3]
  Mean fraction #NGS counts mimetic peptide / total count selection: 0.005112
[4]; [8]
  Mean fraction #NGS counts mimetic peptide / total count selection: 0.003418
[5]; phosphomimetic peptide
  Mean fraction #NGS counts mimetic peptide / total count selection: 0.0001273
[6]
  Mean fraction #NGS counts mimetic peptide / total count selection: 0.0009157

## SRDRKETSI
[3]
  Mean fraction #NGS counts wt peptide / total counts selection: 0.00255
[1]
  Mean fraction #NGS counts wt peptide / total counts selection: 0.002721
[5]
  Mean fraction #NGS counts wt peptide / total counts selection: 0.0004401

## RPYRRESEI
[3]
  Mean fraction #NGS counts wt peptide / total counts selection: 9.302e-5
[1]
  Mean fraction #NGS counts wt peptide / total counts selection: 2.154e-5
[5]
  Mean fraction #NGS counts mimetic peptide / total count selection: 0
  Mean fraction #NGS counts wt peptide / total counts selection: 3.461e-5

## TKGISITSI [GNRHR2]
[7]
  Phosphorylated selection Mean fraction: 3.213e-5
  Unphosphorylated selection Mean fraction: 3.175e-5

## SRDRKETSI [RALBP1]
[7]
  Phosphorylated selection Mean fraction: 0
  Unphosphorylated selection Mean fraction: 1.381e-5

## PANRRETPV
[2]
  Mean fraction #NGS counts mimetic peptide / total count selection: 3.546e-5
[1]
  Mean fraction #NGS counts mimetic peptide / total count selection: 0.0003587

## KGRAKGTPV
[1]
  Mean fraction #NGS counts wt peptide / total counts selection: 0.0008774

## KRSFIESNV
[2]
  Mean fraction #NGS counts wt peptide / total counts selection: 0.0007809
[3]
  Mean fraction #NGS counts wt peptide / total counts selection: 0.07707
[4]; [8]
  Mean fraction #NGS counts wt peptide / total counts selection: 0.2119
[5]; wild type peptide
  Mean fraction #NGS counts wt peptide / total counts selection: 0.007809
[6]
  Mean fraction #NGS counts wt peptide / total counts selection: 0.03115

## TMFLRETSL
[2]
  Mean fraction #NGS counts wt peptide / total counts selection: 0.0004495
[3]
  Mean fraction #NGS counts wt peptide / total counts selection: 0.0186
[4]; mean over selections
  Mean fraction #NGS counts wt peptide / total counts selection: 0.008166
[5]
  Mean fraction #NGS counts wt peptide / total counts selection: 0.0002151
[6]
  Mean fraction #NGS counts wt peptide / total counts selection: 0.01417

## TMFLRETEL
[2]
  Mean fraction #NGS counts mimetic peptide / total count selection: 0.002709
[3]
  Mean fraction #NGS counts mimetic peptide / total count selection: 0.4954
[4]; mean over selections
  Mean fraction #NGS counts mimetic peptide / total count selection: 0.1922
[5]
  Mean fraction #NGS counts mimetic peptide / total count selection: 0.0007019
[6]
  Mean fraction #NGS counts mimetic peptide / total count selection: 0.8115

## KSEPFLTWL [WWTR1]
[7]
  Phosphorylated selection Mean fraction: 1.399e-5
  Unphosphorylated selection Mean fraction: 1.381e-5

## SRDRKEESI
[3]
  Mean fraction #NGS counts mimetic peptide / total count selection: 2.019e-6
[1]
  Mean fraction #NGS counts mimetic peptide / total count selection: 5.904e-6
[5]
  Mean fraction #NGS counts mimetic peptide / total count selection: 0

## KGRAKGEPV
[1]
  Mean fraction #NGS counts mimetic peptide / total count selection: 0

## TNSSSYEHI
[1]
  Mean fraction #NGS counts mimetic peptide / total count selection: 0

## RATEPGSGL
[1]
  Mean fraction #NGS counts mimetic peptide / total count selection: 0

## DKESFLTWL [YAP1]
[7]
  Phosphorylated selection Mean fraction: 0.0002294
  Unphosphorylated selection Mean fraction: 0.0001256

## RQTEYQGVL
[1]
  Mean fraction #NGS counts mimetic peptide / total count selection: 3.59e-6
[5]
  Mean fraction #NGS counts mimetic peptide / total count selection: 0
